Assay results from patent US10105357B2, “Indication of antibiotic drugs for preparation of cancer inhibition pharmaceutical composition” (LAUNX BIOMEDICAL CO., LTD., priority 2014, dated 2018).
Where a name gives a salt, the structure may show the parent alone. Read-outs that look alike come from different tables or passages of the source.

Tests used:
cancer cell lines = experiment: Cell viability analysis (WST-1) on cancer cell lines; type: cell-based, human; conditions: drug 10 μM, 72 hours, WST-1; Table 3
[1] = system: HI650 (Lung Adenocarcinoma); experiment: Cell viability analysis, lung cancer HI650; type: cell-based, human; conditions: Homo sapiens, NCI-H1650, 72 h
[2] = system: A549 (Lung Adenocarcinoma); experiment: Cell viability analysis, lung cancer A549; type: cell-based, human; conditions: Homo sapiens, A549, 72 h
[3] = system: AGS (Gastric Adenocarcinoma); experiment: Cell viability analysis, gastric cancer AGS; type: cell-based, human; conditions: Homo sapiens, 72 h
[4] = system: MKN-45 (Gastric Adenocarcinoma); experiment: Cell viability analysis, gastric cancer MKN-45; type: cell-based, human; conditions: Homo sapiens, MKN-45, 72 h
[5] = system: LoVo (Colorectal Adenocarcinoma); experiment: Cell viability analysis, colon cancer LoVo; type: cell-based, human; conditions: Homo sapiens, LoVo, 72 h
[6] = system: A375 (Amelanotic Melanoma); experiment: Cell viability analysis, skin cancer A375; type: cell-based, human; conditions: Homo sapiens, A-375, 72 h
[7] = system: HeLa (Cervix Adenocarcinoma); experiment: Cell viability analysis, cervical cancer HeLa; type: cell-based, human; conditions: Homo sapiens, HeLa, 72 h
[8] = system: PC3 (p53−) (Prostate Adenocarcinoma); experiment: Cell viability analysis, prostate cancer PC3; type: cell-based, human; conditions: Homo sapiens, 72 h
[9] = system: TSGH-8301 (Urinary Bladder Carcinoma); experiment: Cell viability analysis, bladder cancer TSGH-8301; type: cell-based, human; conditions: Homo sapiens, 72 h
[10] = system: MCF7 (Mammary Gland, Adenocarcinoma); experiment: Cell viability analysis, breast cancer MCF7; type: cell-based, human; conditions: Homo sapiens, MCF7, 72 h
[11] = system: HL-60 (Acute Promyelocytic Leukemia); experiment: Cell viability analysis, leukemia HL-60; type: cell-based, human; conditions: Homo sapiens, HL-60, 72 h
[12] = system: HCT116 (p53+) (Colorectal Carcinoma); experiment: cells; conditions: Homo sapiens, HCT-116, 72 h, read-out: cell viability (survival rate), HCT116
[13] = system: HepG2 (Hepatocellular Carcinoma); experiment: Cell viability analysis, hepatic cancer HepG2; type: cell-based, human; conditions: Homo sapiens, HepG2, 72 h
[14] = read-out: cell viability (survival rate), H1650
[15] = read-out: cell viability (survival rate), A549
[16] = read-out: cell viability (survival rate), AGS
[17] = read-out: cell viability (survival rate), MKN-45
[18] = read-out: cell viability (survival rate), LoVo
[19] = read-out: cell viability (survival rate), A375
[20] = read-out: cell viability (survival rate), HeLa
[21] = read-out: cell viability (survival rate), PC3
[22] = read-out: cell viability (survival rate), TSGH
[23] = read-out: cell viability (survival rate), MCF7
[24] = read-out: cell viability (survival rate), HL-60
[25] = read-out: cell viability (survival rate), H1650, drug 10 μM, 72 hours, WST-1, OD450 nm
[26] = read-out: cell viability (survival rate), A549, drug 10 μM, 72 hours, WST-1, OD450 nm
[27] = read-out: cell viability (survival rate), AGS, drug 10 μM, 72 hours, WST-1, OD450 nm
[28] = read-out: cell viability (survival rate), MKN-45, drug 10 μM, 72 hours, WST-1, OD450 nm
[29] = read-out: cell viability (survival rate), HepG2, drug 10 μM, 72 hours, WST-1, OD450 nm
[30] = read-out: cell viability (survival rate), LoVo, drug 10 μM, 72 hours, WST-1, OD450 nm
[31] = read-out: cell viability (survival rate), A375, drug 10 μM, 72 hours, WST-1, OD450 nm
[32] = read-out: cell viability (survival rate), HeLa, drug 10 μM, 72 hours, WST-1, OD450 nm
[33] = read-out: cell viability (survival rate), PC3, drug 10 μM, 72 hours, WST-1, OD450 nm
[34] = read-out: cell viability (survival rate), TSGH, drug 10 μM, 72 hours, WST-1, OD450 nm
[35] = read-out: cell viability (survival rate), MCF7, drug 10 μM, 72 hours, WST-1, OD450 nm
[36] = read-out: cell viability (survival rate), HL-60, drug 10 μM, 72 hours, WST-1, OD450 nm
[37] = drug 10 μM, 72 hours, WST-1, OD450 nm, read-out: cell viability (survival rate), H1650
[38] = drug 10 μM, 72 hours, WST-1, OD450 nm, read-out: cell viability (survival rate), A549
[39] = drug 10 μM, 72 hours, WST-1, OD450 nm, read-out: cell viability (survival rate), AGS
[40] = drug 10 μM, 72 hours, WST-1, OD450 nm, read-out: cell viability (survival rate), MKN-45
[41] = drug 10 μM, 72 hours, WST-1, OD450 nm, read-out: cell viability (survival rate), HepG2
[42] = drug 10 μM, 72 hours, WST-1, OD450 nm, read-out: cell viability (survival rate), A375
[43] = drug 10 μM, 72 hours, WST-1, OD450 nm, read-out: cell viability (survival rate), HeLa
[44] = drug 10 μM, 72 hours, WST-1, OD450 nm, read-out: cell viability (survival rate), PC3
[45] = drug 10 μM, 72 hours, WST-1, OD450 nm, read-out: cell viability (survival rate), TSGH
[46] = drug 10 μM, 72 hours, WST-1, OD450 nm, read-out: cell viability (survival rate), MCF7
[47] = drug 10 μM, 72 hours, WST-1, OD450 nm, read-out: cell viability (survival rate), HL-60

SMILES | inhibition effect on different cancer cell lines (cancer cell lines) | viability at 10 µM [12] | viability at 10 µM [1, 25] | viability at 10 µM [2, 26] | viability at 10 µM [3, 27] | viability at 10 µM [4, 28] | viability at 10 µM [13, 29] | viability at 10 µM [5, 30] | viability at 10 µM [6, 31] | viability at 10 µM [8, 33] | viability at 10 µM [9, 34] | viability at 10 µM [10, 35] | viability at 10 µM [1, 37] | viability at 10 µM [2, 38] | viability at 10 µM [3, 39] | viability at 10 µM [4, 40] | viability at 10 µM [13, 41] | viability at 10 µM [6, 42] | viability at 10 µM [7, 43] | viability at 10 µM [8, 44] | other results
Cl.NCCc1ccc(O)c(O)c1 [Dopamine hydrochloride (Inotropin), Dopamine hydrochloride] | significant inhibition effect | 90.6% |  |  |  |  |  |  |  |  |  |  |  |  |  |  |  |  |  |  | viability at 10 µM [1, 14]: 76%; viability at 10 µM [2, 15]: 102%; viability at 10 µM [3, 16]: 74.3%; viability at 10 µM [4, 17]: 85%; viability at 10 µM [5, 18]: 84.3%; viability at 10 µM [6, 19]: 83%; viability at 10 µM [7, 20]: 85.1%; viability at 10 µM [8, 21]: 115%; viability at 10 µM [9, 22]: 57.7%; viability at 10 µM [10, 23]: 148%; viability at 10 µM [11, 24]: 91.5%
CO[C@@]1(NC(=O)C(C(=O)O)c2ccc(O)cc2)C(=O)N2C(C(=O)O)=C(CSc3nnnn3C)CO[C@@H]21 (some centres unmarked) [Moxalactam Disodium] | significant inhibition effect | 73.9% | 66.9% | 76.6% | 76.9% | 110% | 79.1% | 94% | 80.8% | 95% | 55.9% | 80.7% |  |  |  |  |  |  |  |  | viability at 10 µM [7, 32]: 61.3%
CN(C)c1ccc(O)c2c1C[C@H]1C[C@H]3[C@H](N(C)C)C(O)=C(C(N)=O)C(=O)[C@@]3(O)C(O)=C1C2=O [Minocycline HCl] | significant inhibition effect | 105% | 74% | 42.5% | 87.6% | 95% | 103% | 87.3% | 81.6% | 53.8% | 60.4% | 49.9% |  |  |  |  |  |  |  |  | viability at 10 µM [11, 36]: 68.1%
NC[C@H]1O[C@H](O[C@H]2[C@H](O)[C@@H](O[C@H]3O[C@H](CO)[C@@H](O)[C@H](N)[C@H]3O)[C@H](N)C[C@@H]2N)[C@H](N)[C@@H](O)[C@@H]1O [Bekanamycin] | significant inhibition effect | 73.6% |  |  |  |  |  | 96.9% |  |  |  |  | 80.8% | 58.3% | 81.7% | 74.5% | 85.3% | 55.5% | 95.2% | 76.3% | viability at 10 µM [9, 45]: 76.2%; viability at 10 µM [10, 46]: 57.5%; viability at 10 µM [11, 47]: 96.8%
O=C([O-])c1ccccc1O.[Na+] [Sodium salicylate] | significant inhibition effect | 73.5% |  |  |  |  |  |  |  |  |  |  |  |  |  |  |  |  |  |  | viability at 10 µM [1, 14]: 90.1%; viability at 10 µM [2, 15]: 107%; viability at 10 µM [3, 16]: 82.1%; viability at 10 µM [4, 17]: 77.9%; viability at 10 µM ([13]; read-out: cell viability (survival rate), HepG2): 84.3%; viability at 10 µM [5, 18]: 102%; viability at 10 µM [6, 19]: 74.9%; viability at 10 µM [7, 20]: 94.4%; viability at 10 µM [8, 21]: 87.9%; viability at 10 µM [9, 22]: 137%; viability at 10 µM [10, 23]: 89%; viability at 10 µM [11, 24]: 94.7%
CCc1c(Cl)c(O)c(Cl)c(O)c1C(=O)O[C@H]1[C@H](O)[C@H](OC)[C@H](OC/C2=C\C=C\C[C@H](O)/C(C)=C/[C@H](CC)[C@@H](O[C@@H]3OC(C)(C)[C@@H](OC(=O)C(C)C)[C@H](O)[C@@H]3O)/C(C)=C/C(C)=C/C[C@@H]([C@@H](C)O)OC2=O)O[C@@H]1C [Fidaxomicin] | significant inhibition effect | 102% | 61.2% | 40.6% | 94.9% | 94.2% | 99.6% | 89.6% | 70.3% | 59.4% | 82.4% | 46.6% |  |  |  |  |  |  |  |  | viability at 10 µM [7, 32]: 82.2%; viability at 10 µM [11, 36]: 99.2%
CN1CCN(c2cc3c(cc2F)c(=O)c(C(=O)O)cn3-c2ccc(F)cc2)CC1 [Difloxacin HCl] | significant inhibition effect | 96.7% |  |  |  |  |  | 95.7% |  |  |  |  | 77.5% | 64.5% | 82.9% | 79.4% | 71.2% | 58.5% | 130% | 77.3% | viability at 10 µM [9, 45]: 52%; viability at 10 µM [10, 46]: 52.3%; viability at 10 µM [11, 47]: 77%
CCCCC(CC)CNC(=N)NC(=N)NCCCCCCNC(=N)NC(=N)NCC(CC)CCCC (centres unmarked) [Alexidine HCl] |  | 65.8% |  |  |  |  |  | 54.6% |  |  |  |  | 57.5% | 25.3% | 45.1% | 64.4% | 65.9% | 38.1% | 44.9% | 38% | viability at 10 µM [9, 45]: 36.6%; viability at 10 µM [10, 46]: 34.8%; viability at 10 µM [11, 47]: 29.4%
OC[C@H]1O[C@H](O[C@]2(CCl)O[C@H](CCl)[C@@H](O)[C@@H]2O)[C@H](O)[C@@H](O)[C@H]1Cl [Sucralose] |  | 54.8% |  |  |  |  |  | 73.8% |  |  |  |  | 72% | 74.3% | 66.7% | 94.1% | 95.3% | 83.3% | 77.9% | 78.8% | viability at 10 µM [9, 45]: 94.3%; viability at 10 µM [10, 46]: 71.2%; viability at 10 µM [11, 47]: 88.5%
O[C@@H]1CO[C@H]2[C@@H]1OC[C@@H]2O [Isosorbide] |  | 55.1% | 73.3% | 60.7% | 69% | 93.1% | 90.1% | 81.8% | 53.5% | 94.3% | 77.5% | 78.6% |  |  |  |  |  |  |  |  | viability at 10 µM [7, 32]: 72.8%; viability at 10 µM [11, 36]: 125%
